# Experimental data from the supplement of paper PMC10307832.
# Experiments:
# Assay in all cases: relative viability (nuclei count vs DMSO), 5 days (fraction); higher = more cells survive
# [1] = compound: C1CC1C(=O)NC2=NNC3=C2C=CC(=C3)C4=CC(=CC=C4)C(=O)NC5CC5 [XMD13-2] + Nc1nc2[nH]cc(CCc3ccc(C(=O)N[C@@H](CCC(=O)O)C(=O)O)cc3)c2c(=O)[nH]1 [Pemetrexed] (partner 0.2 µM)
# Method in brief: (§1)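 Medians of duplicate plates are given as relative viability. That measure is the nuclei count in treated wells divided by the count in vehicle wells. Counts were taken on 4× images of lung cancer cell lines in 1536-well plates, 5 days after pin-tool dosing the day after seeding with one drug alone or a fixed anchor-drug dose plus five library-drug doses (not always all listed) in √10 steps.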
# [2] = compound: C1CC1C(=O)NC2=NNC3=C2C=CC(=C3)C4=CC(=CC=C4)C(=O)NC5CC5 [XMD13-2] + CCNC(=O)c1noc(-c2cc(C(C)C)c(O)cc2O)c1-c1ccc(CN2CCOCC2)cc1 [Luminespib] (partner 0.01 µM)
# Method in brief: as §1
# [3] = compound: Cc1ccc(C(=O)Nc2cccc(C(F)(F)F)c2)cc1Nc1cncc(C(N)=O)c1 [ALW-II-49-7] + CC(C)C[C@H](NC(=O)[C@H](Cc1ccccc1)NC(=O)c1cnccn1)B(O)O [Bortezomib] (partner 0.002 µM)
# Method in brief: as §1
# [4] = compound: Cc1nc(Nc2ncc(C(=O)Nc3c(C)cccc3Cl)s2)cc(N2CCN(CCO)CC2)n1 [Dasatinib] + CC(C)C[C@H](NC(=O)[C@H](Cc1ccccc1)NC(=O)c1cnccn1)B(O)O [Bortezomib] (partner 0.002 µM)
# Method in brief: as §1
Cell Line,relative viability ([1]; first compound 0.05 µM),relative viability ([1]; first compound 0.1581 µM),relative viability ([1]; first compound 0.5 µM),relative viability ([1]; first compound 1.581 µM),relative viability ([1]; first compound 5 µM),relative viability ([2]; first compound 0.05 µM),relative viability ([2]; first compound 0.1581 µM),relative viability ([2]; first compound 0.5 µM),relative viability ([2]; first compound 1.581 µM),relative viability ([2]; first compound 5 µM),relative viability ([3]; first compound 0.08 µM),relative viability ([3]; first compound 0.253 µM),relative viability ([3]; first compound 0.8 µM),relative viability ([3]; first compound 2.53 µM),relative viability ([3]; first compound 8 µM),relative viability ([4]; first compound 0.005 µM),relative viability ([4]; first compound 0.01581 µM),relative viability ([4]; first compound 0.05 µM),relative viability ([4]; first compound 0.1581 µM),relative viability ([4]; first compound 0.5 µM)
LC-2-ad,0.285,0.26,0.282,0.303,0.256,1.16,1.06,0.973,0.992,0.952,1.06,0.997,1.01,1.05,0.983,0.582,0.985,1.01,0.871,0.36
LCLC-97TM1,0.178,0.155,0.166,0.185,0.159,0.883,0.743,0.811,0.667,0.677,0.354,0.677,0.651,,0.218,0.525,0.561,0.735,0.665,0.461
LCLC-103H,0.421,0.473,0.471,0.483,0.461,0.958,0.943,0.998,1.07,0.739,1.03,0.859,1.1,0.9,0.962,0.987,1.06,1,0.918,0.613
LOU-NH91,0.319,0.409,0.392,0.435,0.371,0.355,0.318,0.374,0.347,0.318,0.425,0.529,0.549,0.316,0.489,0.477,0.477,0.479,0.485,0.487
LU99A,0.208,0.203,0.189,0.213,0.187,0.262,0.295,0.254,0.178,0.267,1.29,1.17,1.05,1.07,1.27,1.11,0.973,1.03,0.812,0.573
LXF-289,0.92,0.952,0.892,0.964,0.952,0.717,0.618,0.72,0.76,0.723,0.973,0.965,1.02,1.1,1.04,1.03,1.12,0.93,0.518,0.204
NCI-H23,0.829,0.569,0.747,0.656,0.799,0.222,0.2,0.21,0.204,0.21,1.12,0.807,1.03,1.12,1.02,0.958,0.812,0.904,0.677,0.519
NCI-H322M,0.659,0.614,0.579,,0.608,0.874,0.834,0.804,0.89,1.23,1.09,1.36,1.43,1.32,1.26,1.28,1.25,1.32,0.966,0.177
NCI-H441,0.298,0.24,0.233,0.234,0.263,0.314,0.382,0.375,0.432,0.315,0.333,0.559,0.431,0.384,0.208,0.487,0.613,0.511,0.734,0.172
NCI-H460,0.0636,0.0622,0.0651,0.0612,0.0633,0.0335,0.0365,0.0372,0.0316,0.0324,0.869,1.04,1.04,0.956,1.05,0.97,0.79,0.701,0.736,0.49
NCI-H520,0.704,0.636,0.665,0.573,0.442,0.258,0.221,0.226,0.234,0.236,0.385,0.528,,0.441,0.709,0.588,0.22,0.358,0.146,0.178
NCI-H596,0.478,0.454,0.518,0.456,0.492,0.987,1,0.909,0.903,1.2,0.672,0.99,1.18,1,0.953,0.928,0.815,0.826,0.525,0.515
NCI-H647,0.173,0.168,0.179,0.164,0.134,0.183,0.289,0.183,0.229,0.147,0.858,1.13,0.799,0.725,0.801,0.547,0.593,0.447,0.257,0.189
NCI-H650,0.938,0.995,1.04,0.772,0.958,0.854,0.757,0.854,0.822,0.668,0.649,0.906,0.913,0.88,0.663,0.867,0.939,0.73,0.559,0.451
NCI-H661,0.936,0.927,0.873,0.916,0.838,0.904,0.907,0.904,0.953,0.725,0.865,0.796,0.717,,0.716,0.62,0.415,0.557,0.319,0.24
NCI-H838,0.249,0.226,0.263,0.251,0.254,0.398,0.308,0.407,0.235,0.347,0.71,0.839,0.721,0.64,1.05,0.747,0.395,0.445,0.198,0.202

Cell Line,relative viability ([1]; first compound 0.05 µM),relative viability ([1]; first compound 0.1581 µM),relative viability ([1]; first compound 0.5 µM),relative viability ([1]; first compound 1.581 µM),relative viability ([1]; first compound 5 µM),relative viability ([2]; first compound 0.05 µM),relative viability ([2]; first compound 0.1581 µM),relative viability ([2]; first compound 0.5 µM),relative viability ([2]; first compound 1.581 µM),relative viability ([2]; first compound 5 µM),relative viability ([3]; first compound 0.08 µM),relative viability ([3]; first compound 0.253 µM),relative viability ([3]; first compound 0.8 µM),relative viability ([3]; first compound 2.53 µM),relative viability ([3]; first compound 8 µM),relative viability ([4]; first compound 0.005 µM),relative viability ([4]; first compound 0.01581 µM),relative viability ([4]; first compound 0.05 µM),relative viability ([4]; first compound 0.1581 µM),relative viability ([4]; first compound 0.5 µM)
NCI-H1355,1.04,1.05,1.06,1.06,1.1,0.723,0.726,0.732,0.725,0.759,0.983,1.26,1.23,1.2,1.08,1.12,1.11,1.06,0.981,0.779
NCI-H1437,0.336,0.326,0.343,0.323,0.329,1.16,1.14,1.1,1.04,1.19,0.597,0.478,,0.436,0.5,0.509,0.363,0.469,0.487,0.138
NCI-H1563,0.76,0.806,0.741,0.75,0.913,0.521,0.526,0.527,0.536,0.506,0.922,0.885,0.877,0.842,0.753,0.703,0.607,0.632,0.647,0.562
NCI-H1650,0.351,0.388,0.348,0.418,0.395,0.187,0.21,0.209,0.19,0.21,0.203,0.218,0.218,0.198,0.206,0.227,0.195,0.193,0.217,0.2
NCI-H1651,0.607,0.56,0.577,0.647,0.775,0.969,0.916,0.714,0.773,0.886,1.06,0.976,1.04,0.933,0.936,0.947,0.873,0.795,0.859,0.825
NCI-H1666,0.863,0.919,0.875,0.884,0.946,1,0.992,0.965,1.03,1.01,0.663,0.79,0.87,1.04,0.928,0.763,0.663,0.718,0.582,0.288
NCI-H1734,0.41,0.422,0.398,0.412,0.386,0.259,0.179,0.179,0.192,0.177,1.07,1.14,0.846,0.823,0.738,0.754,0.508,0.79,0.425,0.561
NCI-H1755,0.418,0.455,0.473,0.456,0.396,0.441,0.502,0.419,0.44,0.433,0.963,1.04,0.963,0.923,0.849,0.842,0.759,0.645,0.538,0.297
NCI-H1792,1.16,0.694,0.922,0.75,1.14,0.25,0.462,0.447,0.571,0.377,0.745,0.878,0.82,0.922,0.95,0.932,0.897,0.898,0.681,0.505
NCI-H1915,0.504,0.509,0.544,0.504,0.513,0.867,0.859,0.833,0.717,0.635,0.648,1,0.918,0.931,0.67,0.982,0.809,0.876,0.593,0.298
NCI-H1975,0.295,0.286,0.295,0.316,0.305,0.169,0.253,0.172,0.197,0.191,0.274,0.485,0.333,0.338,0.319,0.393,0.279,0.348,0.212,0.22
NCI-H1993,0.62,0.619,0.613,0.643,0.555,1,0.663,0.833,0.801,1.09,1.14,1.19,1.01,1.13,1.33,0.743,0.851,1.34,0.847,0.497
NCI-H2009,1.01,1.1,1.01,1.01,1.07,1.01,1.01,1.01,1.02,1.19,1,1.03,0.96,0.783,0.512,1.13,0.97,0.884,0.354,0.173
NCI-H2023,0.261,0.206,0.195,0.242,0.246,0.884,0.703,0.954,0.712,0.913,1.05,0.889,1,0.942,0.666,0.788,0.818,0.791,0.705,0.669
NCI-H2085,0.959,0.838,0.977,0.789,1.03,0.447,0.494,0.491,0.497,0.423,0.989,1,1.13,1.16,0.969,1.09,0.958,0.86,0.397,0.262
NCI-H2087,0.635,0.661,0.624,0.67,0.583,0.164,0.159,0.217,0.198,0.152,0.759,0.959,0.824,0.846,0.857,0.751,0.769,0.869,0.815,0.665
